Laboratory results: patent US20250368666A1, “INDAZOLE COMPOUNDS” (TYRA BIOSCIENCES, INC., priority 2022, published 2025)
Structures can show the parent of a compound that is named as a salt. Where two headings read alike, the source gives them in different places.

Key:
FGFR3 = target: T1, FGFR3 (Homo sapiens, UniProt P22607); assay: Kinase binding assay (kinase-tagged T7 phage, affinity beads, qPCR), Kd; conditions: read-out: FGFR3 (Kd nM)
T1 construct: made in house; host or cells: E. coli (BL21-derived), T7 phage
Description: (§1) Kinase-tagged T7 phage strains were prepared in an E. coli host derived from the BL21 strain. E. coli were grown to log-phase and infected with T7 phage and incubated with shaking at 32° C. until lysis. The lysates were centrifuged and filtered to remove cell debris. Streptavidin-coated magnetic beads were treated with biotinylated small molecule ligands for 30 minutes at room temperature to generate affinity resins for kinase assays. The liganded beads were blocked with excess biotin and washed with blocking buffer SeaBlock (Pierce), 1% BSA, 0.05% Tween 20, 1 mM DTT to remove unbound ligand and to reduce non-specific binding.
(§2) Test compounds were prepared as 111× stocks in 100% DMSO. Kds were determined using an 11-point 3-fold compound dilution series with three DMSO control points. […] The compounds were then diluted directly into the assays such that the final concentration of DMSO was 0.9%. All reactions performed in polypropylene 384-well plate. Each was a final volume of 0.02 ml. […] The kinase concentration in the eluates was measured by qPCR.
(§3) Binding constants were calculated with a standard dose-response curve using the Hill equation: […]
(§4) The Hill Slope was set to −1. Curves were fitted using a non-linear least square fit with the Levenberg-Marquardt algorithm.

FGFR1 = target: T2, FGFR1 (Homo sapiens, UniProt P11362); assay: as above; conditions: read-out: FGFR1 (Kd nM)
T2 construct: made in house; host or cells: E. coli (BL21-derived), T7 phage
Description: as §1, §2, §3, §4

[1] = kinase binding assay, 11-point 3-fold dilution series

T2 sequence (P11362 22-822): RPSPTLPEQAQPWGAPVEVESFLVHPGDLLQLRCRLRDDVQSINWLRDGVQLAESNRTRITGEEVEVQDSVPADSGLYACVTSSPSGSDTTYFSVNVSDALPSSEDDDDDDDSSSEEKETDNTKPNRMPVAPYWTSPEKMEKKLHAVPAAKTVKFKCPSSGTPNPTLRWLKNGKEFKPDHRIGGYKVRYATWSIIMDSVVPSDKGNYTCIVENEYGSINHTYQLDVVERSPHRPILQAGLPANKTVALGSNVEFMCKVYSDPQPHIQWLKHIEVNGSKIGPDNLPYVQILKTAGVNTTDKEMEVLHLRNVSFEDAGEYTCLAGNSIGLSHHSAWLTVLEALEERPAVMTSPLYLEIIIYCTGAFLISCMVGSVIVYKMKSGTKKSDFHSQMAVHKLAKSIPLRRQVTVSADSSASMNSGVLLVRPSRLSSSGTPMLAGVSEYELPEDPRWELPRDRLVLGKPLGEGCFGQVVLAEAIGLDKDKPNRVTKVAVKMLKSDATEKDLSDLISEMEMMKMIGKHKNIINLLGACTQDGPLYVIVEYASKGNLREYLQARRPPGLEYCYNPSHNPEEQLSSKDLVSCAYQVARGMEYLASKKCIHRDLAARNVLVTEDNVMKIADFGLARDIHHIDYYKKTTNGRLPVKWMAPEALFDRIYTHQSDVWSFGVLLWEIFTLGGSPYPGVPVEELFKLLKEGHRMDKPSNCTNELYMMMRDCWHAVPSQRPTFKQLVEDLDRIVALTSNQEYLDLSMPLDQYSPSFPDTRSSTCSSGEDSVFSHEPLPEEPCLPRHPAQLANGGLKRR
T1 sequence (P22607 23-806): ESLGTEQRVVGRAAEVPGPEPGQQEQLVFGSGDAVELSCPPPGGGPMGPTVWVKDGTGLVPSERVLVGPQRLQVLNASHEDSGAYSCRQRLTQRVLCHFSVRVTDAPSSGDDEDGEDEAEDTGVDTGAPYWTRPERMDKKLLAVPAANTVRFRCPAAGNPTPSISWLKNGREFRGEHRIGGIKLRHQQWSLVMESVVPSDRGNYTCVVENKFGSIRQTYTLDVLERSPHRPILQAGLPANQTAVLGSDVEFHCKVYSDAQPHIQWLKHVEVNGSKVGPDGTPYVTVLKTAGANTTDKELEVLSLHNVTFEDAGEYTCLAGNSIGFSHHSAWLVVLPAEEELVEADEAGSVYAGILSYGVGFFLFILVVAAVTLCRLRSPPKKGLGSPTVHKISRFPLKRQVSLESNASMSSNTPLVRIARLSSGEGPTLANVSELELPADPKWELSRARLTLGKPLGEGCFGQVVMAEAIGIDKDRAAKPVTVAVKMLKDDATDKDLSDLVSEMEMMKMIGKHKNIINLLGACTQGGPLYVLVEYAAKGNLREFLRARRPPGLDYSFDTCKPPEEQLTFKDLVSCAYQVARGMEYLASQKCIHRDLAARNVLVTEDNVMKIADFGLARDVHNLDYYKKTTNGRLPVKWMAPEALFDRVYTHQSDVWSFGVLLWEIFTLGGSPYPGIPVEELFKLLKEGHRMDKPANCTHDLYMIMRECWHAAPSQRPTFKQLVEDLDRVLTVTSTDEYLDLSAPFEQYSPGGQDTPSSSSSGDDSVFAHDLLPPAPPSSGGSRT

Structure (SMILES) | Kd (FGFR3) | Kd (FGFR1) | Kd (FGFR3; [1]) | Kd (FGFR1; [1])
COc1cc2[nH]nc(-c3ccc(N4CCC(C)(N)C4)nc3)c2cc1O[C@H](C)c1c(Cl)cncc1Cl (stereo in doubt) [Example 380, (R)-1-(5-(5-((R)-1-(3,5-dichloropyridin-4-yl)ethoxy)-6-methoxy-1H-indazol-3-yl)pyridin-2-yl)-3-methylpyrrolidin-3-amine] | 1 to 50 nM | 1 to 50 nM |  | 
C[C@@H](Oc1ccc2[nH]nc(-c3ccc(N4CCC(N)(c5ccnn5C)C4)nn3)c2c1)c1c(Cl)cncc1Cl (stereo in doubt) [Example 416, (R)-1-(6-(5-((R)-1-(3,5-dichloropyridin-4-yl)ethoxy)-1H-indazol-3-yl)pyridazin-3-yl)-3-(1-methyl-1H-pyrazol-5-yl)pyrrolidin-3-amine] |  |  | 1 to 50 nM | 1 to 50 nM
CCNC1(C)CN(c2ncc(-c3n[nH]c4ccc(O[C@H](C)c5c(Cl)cncc5Cl)cc34)cn2)C1 [Example 238, (R)-1-(5-(5-(1-(3,5-dichloropyridin-4-yl)ethoxy)-1H-indazol-3-yl)pyrimidin-2-yl)-N-ethyl-3-methylazetidin-3-amine] | 1 to 50 nM | 1 to 50 nM |  | 
C=CCNC1(C)CN(c2ccc(-c3n[nH]c4ccc(O[C@H](C)c5c(Cl)cncc5Cl)cc34)c(F)n2)C1 [Example 240, (R)-N-ally1-1-(5-(5-(1-(3,5-dichloropyridin-4-yl)ethoxy)-1H-indazol-3-yl)-6-fluoropyridin-2-yl)-3-methylazetidin-3-amine] | 1 to 50 nM | 1 to 50 nM |  | 
C[C@@H](Oc1ccc2[nH]nc(-c3cnc(N4CC(CC#N)(N(C)C)C4)c(F)c3)c2c1)c1c(Cl)cncc1Cl [Example 252, (R)-2-(1-(5-(5-(1-(3,5-dichloropyridin-4-yl)ethoxy)-1H-indazol-3-yl)-3-fluoropyridin-2-yl)-3-(dimethyl-amino)azeti-din-3-yl)acetonitrile] | 1 to 50 nM | 1 to 50 nM |  | 
CC(C)CNC1(CC#N)CN(c2ncc(-c3n[nH]c4ccc(O[C@H](C)c5c(Cl)cncc5Cl)cc34)cc2F)C1 [Example 253, (R)-2-(1-(5-(5-(1-(3,5-Dichloropyridin-4-yl)ethoxy)-1H-indazol-3-yl)-3-fluoropyridin-2-yl)-3-(iso-butylamino)azeti-din-3-yl)acetonitrile dihydrochloride] | 1 to 50 nM | 50 to 300 nM |  | 
Cc1ncc(Cl)c([C@@H](C)Oc2ccc3[nH]nc(-c4cnc(N5CC(CC#N)(NCC(C)C)C5)c(F)c4)c3c2)c1Cl [Example 254, (R)-2-(1-(5-(5-(1-(3,5-Dichloro-2-methylpyridin-4-yl)ethoxy)-1H-indazol-3-yl)-3-fluoropyridin-2-yl)-3-(iso-butylamino)azeti-din-3-yl)acetonitrile] | 1 to 50 nM | 50 to 300 nM |  | 
CC(C)N(C)C1(CC#N)CN(c2ncc(-c3n[nH]c4ccc(O[C@H](C)c5c(Cl)cncc5Cl)cc34)cc2F)C1 [Example 257, (R)-2-(1-(5-(5-(1-(3,5-dichloropyridin-4-yl)ethoxy)-1H-indazol-3-yl)-3-fluoropyridin-2-yl)-3-(isopropyl(methyl)a-mino)azetidin-3-yl)acetonitrile] | 1 to 50 nM | 50 to 300 nM |  | 
C[C@@H](Oc1ccc2[nH]nc(-c3cnc(N4CC(N)(C5CCOCC5)C4)c(F)c3)c2c1)c1c(Cl)cncc1Cl [Example 263, (R)-1-(5-(5-(1-(3,5-dichloropyridin-4-yl)ethoxy)-1H-indazol-3-yl)-3-fluoropyridin-2-yl)-3-(tetrahydro-2H-pyran-4-yl)azetidin-3-amine] | 1 to 50 nM | 1 to 50 nM |  | 
CCCC1(N)CN(c2ncc(-c3n[nH]c4ccc(O[C@H](C)c5c(Cl)cncc5Cl)cc34)cc2F)C1 [Example 265, (R)-1-(5-(5-(1-(3,5-dichloropyridin-4-yl)ethoxy)-1H-indazol-3-yl)-3-fluoropyridin-2-yl)-3-propylazetidin-3-amine] | 1 to 50 nM | 1 to 50 nM |  | 
C[C@@H](Oc1ccc2[nH]nc(-c3cnc(N4CC(C)(NCCN5CCCC5)C4)c(F)c3)c2c1)c1c(Cl)cncc1Cl [Example 268, (R)-1-(5-(5-(1-(3,5-dichloropyridin-4-yl)ethoxy)-1H-indazol-3-yl)-3-fluoropyridin-2-yl)-3-methyl-N-(2-(pyrrolidin-1-yl)ethyl)azetidin-3-amine] | 1 to 50 nM | 1 to 50 nM |  | 
C[C@@H](Oc1ccc2[nH]nc(-c3ccc(N4CC(N)(CC(C)(C)O)C4)nn3)c2c1)c1c(Cl)cncc1Cl [Example 275, (R)-1-(3-amino-1-(6-(5-(1-(3,5-dichloropyridin-4-yl)ethoxy)-1H-indazol-3-yl)pyridazin-3-yl)azetidin-3-yl)-2-methylpropan-2-ol] | 1 to 50 nM | 1 to 50 nM |  | 
C[C@@H](Oc1ccc2[nH]nc(-c3ccc(N4CC(N)(CC(C)(C)O)C4)nc3)c2c1)c1c(Cl)cncc1Cl [Example 278, (R)-1-(3-amino-1-(5-(5-(1-(3,5-dichloropyridin-4-yl)ethoxy)-1H-indazol-3-yl)pyridin-2-yl)azetidin-3-yl)-2-methylpropan-2-ol] | 1 to 50 nM | 1 to 50 nM |  | 
C[C@@H](Oc1ccc2[nH]nc(-c3ccc(N4CC(N)(CCO)C4)nc3)c2c1)c1c(Cl)cncc1Cl [Example 279, (R)-2-(3-amino-1-(5-(5-(1-(3,5-dichloropyridin-4-yl)ethoxy)-1H-indazol-3-yl)pyridin-2-yl)azetidin-3-yl)ethanol] | 1 to 50 nM | 1 to 50 nM |  | 
CCC(C)C1(N)CN(c2ncc(-c3n[nH]c4ccc(O[C@H](C)c5c(Cl)cncc5Cl)cc34)cc2F)C1 (stereo partly drawn) [Example 280, 1-[5-[5-[(1R)-1-(3,5-dichloro-4-pyridyl)ethoxy]-1H-indazol-3-yl]-3-fluoro-2-pyridyl]-3-sec-butyl-azetidin-3-amine] | 1 to 50 nM | 1 to 50 nM |  | 
C[C@@H](Oc1ccc2[nH]nc(-c3ccc(N4CC(C)(N)C4)nn3)c2c1)c1c(Cl)cncc1Cl [Example 286] | 1 to 50 nM | 1 to 50 nM |  | 
CC(C)OC(=O)C1(N)CN(c2ncc(-c3n[nH]c4ccc(O[C@H](C)c5c(Cl)cncc5Cl)cc34)cc2F)C1 [Example 287, (R)-isopropyl 3-amino-1-(5-(5-(1-(3,5-dichloropyridin-4-yl)ethoxy)-1H-indazol-3-yl)-3-fluoropyridin-2-yl)azetidine-3-carboxylate] | 1 to 50 nM | 1 to 50 nM |  | 
C[C@@H](Oc1ccc2[nH]nc(-c3cnc(N4CC(N)(CC5CCCO5)C4)c(F)c3)c2c1)c1c(Cl)cncc1Cl (stereo partly drawn) [Example 288, 1-(5-(5-((R)-1-(3,5-dichloropyridin-4-yl)ethoxy)-1H-indazol-3-yl)-3-fluoropyridin-2-yl)-3-((tetrahydrofuran-2-yl)methyl)azetidin-3-amine] | 1 to 50 nM | 1 to 50 nM |  | 
C[C@@H](Oc1ccc2[nH]nc(-c3ccc(N4CC(N)(CCF)C4)nn3)c2c1)c1c(Cl)cncc1Cl [Example 292, (R)-1-(6-(5-(1-(3,5-dichloropyridin-4-yl)ethoxy)-1H-indazol-3-yl)pyridazin-3-yl)-3-(2-fluoroethyl)azetidin-3-amine] | 1 to 50 nM | 1 to 50 nM |  | 
C[C@@H](Oc1ccc2[nH]nc(-c3cnc(N4CC(N)(C(=O)N(C)C)C4)c(F)c3)c2c1)c1c(Cl)cncc1Cl [Example 293, (R)-3-amino-1-(5-(5-(1-(3,5-dichloropyridin-4-yl)ethoxy)-1H-indazol-3-yl)-3-fluoropyridin-2-yl)-N,N-dimethylazetidine-3-carboxamide] | 1 to 50 nM | 1 to 50 nM |  | 
CNC(=O)C1(N)CN(c2ncc(-c3n[nH]c4ccc(O[C@H](C)c5c(Cl)cncc5Cl)cc34)cc2F)C1 [Example 296, (R)-3-amino-1-(5-(5-(1-(3,5-dichloropyridin-4-yl)ethoxy)-1H-indazol-3-yl)-3-fluoropyridin-2-yl)-N-methylazetidine-3-carboxamide] | 1 to 50 nM | 1 to 50 nM |  | 
COc1cc2[nH]nc(-c3cnc(N4CC(C)(N)C4)nc3)c2cc1O[C@H](C)c1c(Cl)cncc1Cl [Example 302, (R)-1-(5-(5-(1-(3,5-dichloropyridin-4-yl)ethoxy)-6-methoxy-1H-indazol-3-yl)pyrimidin-2-yl)-3-methylazetidin-3-amine] | 1 to 50 nM | 1 to 50 nM |  | 
C[C@@H](Oc1ccc2[nH]nc(-c3ccc(N4CC(N)(CC5CCCO5)C4)nn3)c2c1)c1c(Cl)cncc1Cl (stereo partly drawn) [Example 305, 1-(6-(5-((R)-1-(3,5-dichloropyridin-4-yl)ethoxy)-1H-indazol-3-yl)pyridazin-3-yl)-3-((tetrahydrofuran-2-yl)methyl)azetidin-3-amine] | 1 to 50 nM | 1 to 50 nM |  | 
C[C@@H](Oc1ccc2[nH]nc(-c3cnc(N4CC(N)(CCCO)C4)c(F)c3)c2c1)c1c(Cl)cncc1Cl [Example 307, (R)-3-(3-amino-1-(5-(5-(1-(3,5-dichloropyridin-4-yl)ethoxy)-1H-indazol-3-yl)-3-fluoropyridin-2-yl)azetidin-3-yl)propan-1-ol] | 1 to 50 nM | 1 to 50 nM |  | 
C[C@@H](Oc1ccc2[nH]nc(-c3cnc(N4CC[C@@](C)(N)C4)c(F)c3)c2c1)c1c(Cl)cncc1Cl [Example 408, (R)-1-(5-(5-((R)-1-(3,5-dichloropyridin-4-yl)ethoxy)-1H-indazol-3-yl)-3-fluoropyridin-2-yl)-3-methylpyrrolidin-3-amine] |  |  |  | 1 to 50 nM
